From US9688624B2, “DP2 antagonist and uses thereof” (Brickell Biotech, Inc., priority 2010, dated 2017)
Where two headings read alike, the source gives them in different places.

Target: guinea pig DP2 receptor (Cavia porcellus, UniProt H0W1T0)
Test: In vitro DP2/CRTH2 radioligand ([3H]PGD2) membrane binding assay
Experimental: Example 15: In Vitro DP2/CRTH2 Binding Assay
The ability of Compound 1 to bind to the human DP2 receptor was assessed via a radioligand binding assay using [^3H]PGD2. HEK293 cells stably expressing recombinant human DP2 are resuspended in 10 mM Hepes, 7.4 containing 1 mM DTT, lysed and centrifuged at 75,000×g to pellet the membranes. The membranes are resuspended in 10 mM Hepes, 7.4 containing 1 mM DTT and 10% glycerol to approximately 5 mg protein/ml. Membranes (2-10 μg protein/well) are incubated in 96-well plates with 1 nM [^3H]PGD2 and Compound 1 in Assay Buffer (50 mM Hepes, 10 mM MnCl2, 1 mM EDTA, plus or minus 0.2% human serum albumin, pH 7.4) for 60 minutes at room temperature. The reactions are terminated by rapid filtration through Whatman GF/C glass fibre filter plates. The filter plates were pre-soaked in 0.33% polythylenimine for 30 minutes at room temperature then washed in Wash Buffer (50 mM Hepes, 0.5 M NaCl pH 7.4) prior to harvesting. After harvesting, the filter plates are washed 3 times with 1 ml cold Wash Buffer then dried. Scintillant is then added to the plates and the radioactivity retained on the filters is determined on a Packard TopCount (Perkin Elmer). Specific binding is determined as total radioactive binding minus non-specific binding in the presence of 10 μM PGD2. IC50s were determined using GraphPad prism analysis of drug titration curves. […]

Chain of guinea pig DP2 receptor (H0W1T0 1-391): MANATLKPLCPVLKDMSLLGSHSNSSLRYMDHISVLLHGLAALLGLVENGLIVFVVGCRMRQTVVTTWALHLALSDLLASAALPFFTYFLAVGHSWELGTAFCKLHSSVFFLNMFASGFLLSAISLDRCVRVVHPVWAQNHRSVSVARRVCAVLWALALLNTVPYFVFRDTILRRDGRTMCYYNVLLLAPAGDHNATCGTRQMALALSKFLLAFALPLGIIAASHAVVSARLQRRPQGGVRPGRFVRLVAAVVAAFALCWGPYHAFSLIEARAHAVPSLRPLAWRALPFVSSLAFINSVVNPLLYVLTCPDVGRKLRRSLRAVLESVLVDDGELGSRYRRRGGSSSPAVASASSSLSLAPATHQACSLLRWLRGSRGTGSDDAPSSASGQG

COc1ccc(CC(=O)O)cc1Oc1ccc(NC(=O)C(C)(C)C)cc1CSC(C)(C)C [Compound 1, 2-(3-(2-((tert-butylthio)methyl)-4-(2,2-dimethyl-propionylamino)phenoxy)-4-methoxyphenyl)acetic acid]
IC50 (0.2% guinea pig serum albumin, read-out: IC50, radioligand membrane binding on guinea pig DP2): 0.0203 µM
IC50 (average, without serum albumin, read-out: IC50, inhibition of radiolabeled PGD2 binding to guinea pig DP2): 0.0106 µM
